Assay results taken from ChEMBL document CHEMBL6177956, “Discovery of first-in-class human glycolate oxidase near infrared molecular rotor inhibitors (NIRGOi)” (Eur J Med Chem, 2025).

Experiments:
[1] = target: T1, 2-Hydroxyacid oxidase 2 (Rattus norvegicus, UniProt Q07523); experiment: Binding affinity to rat LCHAO by Amplex Red reagent based fluorescence analysis; format: toxicity
T1 sequence (Q07523 whole entry): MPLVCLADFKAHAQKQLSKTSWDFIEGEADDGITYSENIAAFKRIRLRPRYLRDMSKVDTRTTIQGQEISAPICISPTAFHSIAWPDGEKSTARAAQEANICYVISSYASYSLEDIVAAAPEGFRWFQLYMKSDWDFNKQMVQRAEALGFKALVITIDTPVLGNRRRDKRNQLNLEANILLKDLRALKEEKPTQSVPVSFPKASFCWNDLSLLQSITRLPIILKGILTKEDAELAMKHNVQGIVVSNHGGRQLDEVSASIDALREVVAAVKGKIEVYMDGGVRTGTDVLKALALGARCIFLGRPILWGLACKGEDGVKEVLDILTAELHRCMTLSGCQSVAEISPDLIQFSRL

[2] = target: T1, 2-Hydroxyacid oxidase 2; experiment: Inhibition of rat LCHAO using 2-hydroxyoctanoate as substrate incubated for 30 mins by Amplex Red reagent based fluorometric analysis; format: toxicity

SMILES | Kd [1] [µM] | IC50 [2] [µM]
CC1(C)C(/C=C/c2ccc(O)c(C(=O)O)c2)=[N+](CCC(=O)O)c2ccc3ccccc3c21 | 3.2 | 36.7
O=C(O)c1cc(/C=C/C2=CC(=C3C(=O)c4ccccc4C3=O)c3ccccc3O2)ccc1O | 462 | 248
N#CC(C#N)=C1C=C(/C=C/c2ccc(O)c(C(=O)O)c2)Oc2ccccc21 | > 1000 | > 500
